Reference: patent US8211915B2, “Biphenyl compounds useful as muscarinic receptor antagonists” (Theravance, Inc., priority 2004, dated 2012)

Molecular target: T1, hM3 muscarinic receptor subtype (Homo sapiens, UniProt P20309)
T1 construct: expressed in transfected cells; crude membranes prepared in house
Experiment: Radioligand binding assay ([3H]-NMS displacement)
Conditions: [3H]-NMS 1 nM, CHO cell membranes, 60 minutes at 37° C.; read-out: Ki value for the M3 muscarinic receptor subtype
Method: A. Membrane Preparation from Cells Expressing hM1, hM2, hM3 and hM4 Muscarinic Receptor Subtypes
CHO cell lines stably expressing cloned human hM1, hM2, hM3 and hM4 muscarinic receptor subtypes, respectively, were grown to near confluency in medium consisting of HAM's F-12 supplemented with 10% FBS and 250 μg/mL Geneticin. The cells were grown in a 5% CO2, 37° C. incubator and lifted with 2 mM EDTA in dPBS. Cells were collected by 5 minute centrifugation at 650×g, and cell pellets were either stored frozen at −80° C. or membranes were prepared immediately. For membrane preparation, cell pellets were resuspended in lysis buffer and homogenized with a Polytron PT-2100 tissue disrupter (Kinematica AG; 20 seconds×2 bursts). […] The protein concentration of the membrane suspension was determined by the method described in Lowry, O. et al., […] 193:265 (1951). […]
Radioligand binding assays were performed in 96-well microtiter plates in a total assay volume of 100 μL. […] Filter plates were rinsed three times with wash buffer (10 mM HEPES) to remove unbound radioactivity. […] The plates were then counted in a PerkinElmer Topcount liquid scintillation counter (PerkinElmer Inc., Wellesley, Mass.). Binding data were analyzed by nonlinear regression analysis with the GraphPad Prism Software package (GraphPad Software, Inc., San Diego, Calif.) using the one-site competition model. […]

T1 sequence (P20309 whole entry): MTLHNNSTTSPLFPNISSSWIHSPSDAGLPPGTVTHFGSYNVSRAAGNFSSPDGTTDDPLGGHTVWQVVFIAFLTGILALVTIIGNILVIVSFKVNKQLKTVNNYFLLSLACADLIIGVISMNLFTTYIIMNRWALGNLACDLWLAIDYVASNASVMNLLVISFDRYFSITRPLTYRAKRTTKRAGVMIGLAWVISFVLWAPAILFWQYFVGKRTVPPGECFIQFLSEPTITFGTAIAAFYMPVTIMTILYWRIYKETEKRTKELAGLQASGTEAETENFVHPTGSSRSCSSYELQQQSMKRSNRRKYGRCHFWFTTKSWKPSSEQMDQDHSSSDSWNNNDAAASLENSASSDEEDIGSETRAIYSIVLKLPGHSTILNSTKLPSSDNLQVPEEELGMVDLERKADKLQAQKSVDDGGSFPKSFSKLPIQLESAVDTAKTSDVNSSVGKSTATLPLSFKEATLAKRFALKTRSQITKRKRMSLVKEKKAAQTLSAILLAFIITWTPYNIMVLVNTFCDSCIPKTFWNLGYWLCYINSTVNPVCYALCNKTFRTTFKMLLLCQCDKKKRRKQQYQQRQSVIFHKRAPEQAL

Ki: < 5 nM
SMILES: NC(=O)C1CCN(Cc2ccc(NC(=O)CCN3CCC(OC(=O)Nc4ccccc4-c4ccccc4)CC3)cc2)CC1 [Example 1, Biphenyl-2-ylcarbamic Acid 1-{2-[4-(4-Carbamoylpiperidin-1-ylmethyl)phenylcarbamoyl]ethyl}piperidin-4-yl Ester]
